Source: article PMC10582325 (Frontiers in Pharmacology, 2023)
Where “and” joins values, the source holds several entries; their conditions need not be identical. Equal entries are not always repeated. Where two headings read alike, the source gives them in different places.

Assays:
rCYP2C8 = biological target: T1, rCYP2C8 (Homo sapiens, UniProt P10632); experiment: Reaction phenotyping of BDQ in recombinant P450 enzymes (rCYPs method); type: in vitro ADME; details: BDQ 1 μM, CYP2C8
T1 construct: purchased BD Gentest (Woburn, MA, United States)
T1 sequence (P10632 1-490): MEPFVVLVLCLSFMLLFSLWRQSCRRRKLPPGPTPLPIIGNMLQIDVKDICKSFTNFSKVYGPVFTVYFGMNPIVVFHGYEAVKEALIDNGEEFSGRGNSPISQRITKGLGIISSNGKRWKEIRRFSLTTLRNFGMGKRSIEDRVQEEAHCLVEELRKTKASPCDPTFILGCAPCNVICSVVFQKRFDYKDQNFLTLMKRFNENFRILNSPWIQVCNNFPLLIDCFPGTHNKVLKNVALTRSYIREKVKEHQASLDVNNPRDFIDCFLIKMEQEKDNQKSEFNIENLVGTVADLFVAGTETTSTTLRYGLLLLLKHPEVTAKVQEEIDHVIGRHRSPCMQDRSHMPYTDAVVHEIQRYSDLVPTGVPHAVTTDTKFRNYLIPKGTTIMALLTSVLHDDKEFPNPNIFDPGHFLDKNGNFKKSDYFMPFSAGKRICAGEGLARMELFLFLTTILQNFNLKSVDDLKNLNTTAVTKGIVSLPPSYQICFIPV

rCYP3A4 = biological target: T2, rCYP3A4 (Homo sapiens, UniProt P08684); experiment: as above; type: in vitro ADME; details: BDQ 1 μM, CYP3A4
T2 construct: purchased BD Gentest (Woburn, MA, United States)
T2 sequence (P08684 whole entry): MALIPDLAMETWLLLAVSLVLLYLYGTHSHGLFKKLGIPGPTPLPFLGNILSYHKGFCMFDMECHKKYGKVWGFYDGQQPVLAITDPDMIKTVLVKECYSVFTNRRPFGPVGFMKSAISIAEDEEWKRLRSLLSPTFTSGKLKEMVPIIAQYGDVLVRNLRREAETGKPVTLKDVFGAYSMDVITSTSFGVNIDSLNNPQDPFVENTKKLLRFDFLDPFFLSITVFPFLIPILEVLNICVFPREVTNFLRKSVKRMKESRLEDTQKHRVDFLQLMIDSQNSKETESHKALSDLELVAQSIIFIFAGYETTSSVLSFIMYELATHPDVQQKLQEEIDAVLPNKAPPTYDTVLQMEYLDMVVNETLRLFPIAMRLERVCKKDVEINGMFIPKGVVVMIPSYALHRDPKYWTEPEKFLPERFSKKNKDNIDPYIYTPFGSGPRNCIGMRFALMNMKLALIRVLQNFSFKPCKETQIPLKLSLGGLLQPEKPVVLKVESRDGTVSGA

rCYP2A6 = biological target: T3, rCYP2A6 (Homo sapiens, UniProt P11509); experiment: as above; type: in vitro ADME; details: BDQ 1 μM, M2 formation, CYP2A6
T3 construct: purchased BD Gentest (Woburn, MA, United States)
T3 sequence (P11509 1-494): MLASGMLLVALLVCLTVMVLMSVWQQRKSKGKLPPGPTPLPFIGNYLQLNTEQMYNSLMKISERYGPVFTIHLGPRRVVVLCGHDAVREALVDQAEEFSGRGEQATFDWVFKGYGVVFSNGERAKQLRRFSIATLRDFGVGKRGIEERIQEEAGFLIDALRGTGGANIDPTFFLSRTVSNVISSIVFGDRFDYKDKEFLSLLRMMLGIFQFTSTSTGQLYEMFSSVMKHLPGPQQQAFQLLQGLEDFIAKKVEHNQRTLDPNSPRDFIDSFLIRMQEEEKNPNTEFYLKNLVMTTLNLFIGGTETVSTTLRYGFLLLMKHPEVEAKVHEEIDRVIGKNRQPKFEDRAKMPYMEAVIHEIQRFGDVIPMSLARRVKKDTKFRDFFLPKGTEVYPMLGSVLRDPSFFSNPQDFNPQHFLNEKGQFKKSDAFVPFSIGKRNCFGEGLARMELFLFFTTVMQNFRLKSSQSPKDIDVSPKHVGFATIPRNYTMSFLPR

rCYP2C19 = biological target: T4, rCYP2C19 (Homo sapiens, UniProt P33261); experiment: as above; type: in vitro ADME; details: BDQ 1 μM, CYP2C19
T4 construct: purchased BD Gentest (Woburn, MA, United States)
T4 sequence (P33261 whole entry): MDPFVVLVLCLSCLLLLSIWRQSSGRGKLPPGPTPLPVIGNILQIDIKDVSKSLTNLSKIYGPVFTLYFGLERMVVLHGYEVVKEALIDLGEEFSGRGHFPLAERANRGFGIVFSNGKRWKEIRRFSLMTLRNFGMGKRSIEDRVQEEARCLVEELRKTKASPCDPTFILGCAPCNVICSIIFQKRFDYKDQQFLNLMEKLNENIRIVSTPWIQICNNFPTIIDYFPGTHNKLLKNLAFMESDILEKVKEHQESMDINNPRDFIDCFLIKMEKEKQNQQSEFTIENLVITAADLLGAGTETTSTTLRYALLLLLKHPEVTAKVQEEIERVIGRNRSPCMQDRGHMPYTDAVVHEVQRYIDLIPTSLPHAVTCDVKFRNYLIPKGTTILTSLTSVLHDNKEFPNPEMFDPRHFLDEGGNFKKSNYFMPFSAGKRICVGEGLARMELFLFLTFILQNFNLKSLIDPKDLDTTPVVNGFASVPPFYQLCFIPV

in vivo = details: male, BALB/c, mouse, tissue-to-plasma ratio (Kp)
[1] = male, BALB/c, mouse, in vivo
[2] = Plasma concentration 3 h post dose in murine model of tuberculosis; type: in vivo, BALB/c mice infected with M. tuberculosis H37Rv; details: TB model; for concentration at 3 h: female, BALB/c, mouse, plasma, read-out: Mean plasma concentration at three hours after oral administration; for plasma concentration after coadministration as percent of BDQ alone: 3 h post dose, p < 0.05
rCYP3A5 = biological target: T5, rCYP3A5 (Homo sapiens, UniProt P20815); experiment: Reaction phenotyping of BDQ in recombinant P450 enzymes (rCYPs method); type: in vitro ADME; details: BDQ 1 μM, CYP3A5
T5 construct: purchased BD Gentest (Woburn, MA, United States)
T5 sequence (P20815 whole entry): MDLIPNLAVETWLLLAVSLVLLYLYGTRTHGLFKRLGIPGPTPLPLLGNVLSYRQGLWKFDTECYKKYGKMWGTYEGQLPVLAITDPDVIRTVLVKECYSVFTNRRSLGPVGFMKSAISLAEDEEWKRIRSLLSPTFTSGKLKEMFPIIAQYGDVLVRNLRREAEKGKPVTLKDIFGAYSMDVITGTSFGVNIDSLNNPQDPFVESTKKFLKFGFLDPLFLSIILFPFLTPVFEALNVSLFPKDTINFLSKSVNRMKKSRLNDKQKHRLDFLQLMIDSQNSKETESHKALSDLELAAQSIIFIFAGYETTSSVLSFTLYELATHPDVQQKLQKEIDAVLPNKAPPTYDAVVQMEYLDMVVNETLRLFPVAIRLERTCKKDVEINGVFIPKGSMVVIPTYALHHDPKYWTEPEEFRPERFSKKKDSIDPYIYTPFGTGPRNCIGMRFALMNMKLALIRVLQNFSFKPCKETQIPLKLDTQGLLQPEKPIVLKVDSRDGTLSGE

[3] = mouse, in vivo
phospholipidosis = details: cited from earlier work
[4] = Lung and spleen tissue exposure in BALB/c mice
[5] = Steady-state plasma pharmacokinetics of BDQ, M2 and TBI-166 in BALB/c mice; details: for AUC(0-t): Plasma; for t 1/2: after last dose
[6] = Stability of BDQ, M2 and TBI-166 in mice plasma (LC-MS/MS validation)
CYP3A4/5 = details: cited from earlier work
[7] = TBI-166 group (20 mg/kg), W4, LLOQ 5, 5, 15 ng/mL for BDQ, TBI-166, M2
[8] = TBI-166 group (20 mg/kg), W8, LLOQ 5, 5, 15 ng/mL for BDQ, TBI-166, M2

COc1nc2ccc(Br)cc2cc1[C@@H](c1ccccc1)[C@@](O)(CCN(C)C)c1cccc2ccccc12 [BDQ, Bedaquiline]
f m (fraction of drug metabolism by individual CYP enzyme) (rCYP2C8): 8.8%
f m (fraction of drug metabolism by individual CYP enzyme) (rCYP3A4): 73.1%
f m (fraction of drug metabolism by individual CYP enzyme) (rCYP2A6): 3.1%
f m (fraction of drug metabolism by individual CYP enzyme) (rCYP2C19): 5.7%
Kp (in vivo): 19.7
AUC(0-last) as percent of single-drug group [1]: 100%
MRT(0-t) ([1]; po, 25 mg/kg): 52.80 h
Mean plasma concentration at three hours after oral administration [2, 7]: <LLOQ
Mean plasma concentration at three hours after oral administration [2, 8]: <LLOQ
concentration at 3 h ([2]; oral, 25 mg/kg, BDQ group (25 mg/kg), W4, LLOQ 5, 5, 15 ng/mL for BDQ, TBI-166, M2): 657 ± 142 ng/mL
concentration at 3 h ([2]; oral, 25 mg/kg, BDQ group (25 mg/kg), W8, LLOQ 5, 5, 15 ng/mL for BDQ, TBI-166, M2): 920 ± 126 ng/mL
concentration at 3 h ([2]; po, BDQ + TBI-166 group, W4): 647 ± 199 ng/mL
concentration at 3 h ([2]; po, BDQ + TBI-166 group, W8): 889 ± 171 ng/mL
f m (fraction of drug metabolism by individual CYP enzyme) (rCYP3A5): 3.5%
exposure (AUC0-t) with vs without coadministration [3]: similar

CNCC[C@@](O)(c1cccc2ccccc12)[C@H](c1ccccc1)c1cc2cc(Br)ccc2nc1OC [M2, N-desmethyl-bedaquiline]
higher cardiotoxicity by inducing phospholipidosis compared with BDQ (phospholipidosis): 50 times
plasma concentration after coadministration as percent of BDQ alone ([2]; 4 weeks): 87%
plasma concentration after coadministration as percent of BDQ alone ([2]; 8 weeks): 79%
Mean plasma concentration at three hours after oral administration ([2]; BDQ + TBI-166 group, W4): 970 ng/mL and 969.68 ± 206.81 ng/mL
Mean plasma concentration at three hours after oral administration ([2]; BDQ + TBI-166 group, W8): 948 ng/mL and 948.31 ± 60.21 ng/mL
Mean plasma concentration at three hours after oral administration [2, 7]: <LLOQ
Mean plasma concentration at three hours after oral administration [2, 8]: <LLOQ
AUC(0-t) ([4]; Lung, BDQ + TBI-166 group): 4940.02 ± 756.58 µg·h/g
tissue-to-plasma ratio (Kp) ([4]; Lung, BDQ + TBI-166 group): 64.79
AUC(0-t) ([4]; Lung, BDQ group): 4827.39 ± 818.42 µg·h/g
tissue-to-plasma ratio (Kp) ([4]; Lung, BDQ group): 41.72
AUC(0-t) ([4]; Spleen, BDQ + TBI-166 group): 6358.44 ± 1054.47 µg·h/g
tissue-to-plasma ratio (Kp) ([4]; Spleen, BDQ + TBI-166 group): 83.39
AUC(0-t) ([4]; Spleen, BDQ group): 4703.39 ± 1052.83 µg·h/g
tissue-to-plasma ratio (Kp) ([4]; Spleen, BDQ group): 40.65
exposure (AUC0-t) with vs without coadministration ([4]; lungs): similar
increase of exposure (AUC0-t) after coadministration of BDQ with TBI-166 ([4]; spleens): 1.5 fold
mean plasma concentration in BDQ + TBI-166 group as percent of BDQ group ([5]; 1 h post dose): 85%
mean plasma concentration ([5]; 1 h post dose (so in the source), BDQ group): 1,438 ng/mL
mean plasma concentration ([5]; 1 h post dose, BDQ + TBI-166 group): 1,235.36 ng/mL
mean plasma concentration in BDQ + TBI-166 group as percent of BDQ group ([5]; 3 h post dose): 75%
mean plasma concentration ([5]; 3 h post dose, BDQ + TBI-166 group): 1,084.84 ng/mL
mean plasma concentration ([5]; 3 h post dose, BDQ group): 1,438.31 ng/mL
area under the curve ratio (AUCR) ([5]; BDQ + TBI-166 group vs BDQ group): 0.66
AUC(0-t) ([5]; BDQ + TBI-166 group (Table S4)): 76250 ± 8100 ng·h/mL
AUC(0-t) ([5]; BDQ group (Table S4)): 115730 ± 25440 ng·h/mL
AUC(0-last) ([5]; plasma, BDQ + TBI-166 group): 76,310 ± 5,901 h·ng/mL
AUC(0-last) as percent of single-drug group ([5]; plasma, BDQ + TBI-166 group): 66%
AUC(0-∞) ([5]; plasma, BDQ + TBI-166 group): 89,814 h·ng/mL
C max ([5]; plasma, BDQ + TBI-166 group): 1,235.36 ± 22.74 ng/mL
MRT(0-t) ([5]; plasma, BDQ + TBI-166 group): 51.71 h
T max ([5]; plasma, BDQ + TBI-166 group): 1 h
t 1/2 ([5]; plasma, BDQ + TBI-166 group (BDQ 25 mg/kg + TBI-166 20 mg/kg, gavage QD 21 days)): 57.47 h
t 1/2 ([5]; plasma, BDQ group (BDQ 25 mg/kg alone, gavage QD 21 days)): 64.27 h
AUC(0-last) ([5]; plasma, BDQ group (BDQ alone)): 115,704 ± 19,589 h·ng/mL
AUC(0-∞) ([5]; plasma, BDQ group (BDQ alone)): 134,430 h·ng/mL
C max ([5]; plasma, BDQ group (BDQ alone)): 1,438.31 ± 127.21 ng/mL
MRT(0-t) ([5]; plasma, BDQ group (BDQ alone)): 56.46 h
T max ([5]; plasma, BDQ group (BDQ alone)): 3 h
AUC(0-last) as percent of single-drug group ([5]; plasma, BDQ group (reference)): 100%
decrease of AUC0-last after coadministration of BDQ with TBI-166 ([5]; plasma, vs BDQ group): 34%
Stability in mice plasma, RE ([6]; 4℃ for 24 h, 45 ng/mL): 5.42%
Stability in mice plasma, RE ([6]; 4℃ for 24 h, 225 ng/mL): 13.08%
Stability in mice plasma, RE ([6]; 4℃ for 24 h, 2250 ng/mL): 9.97%
Stability in mice plasma, RE ([6]; -40℃ for 7 d, 45 ng/mL): 15.73%
Stability in mice plasma, RE ([6]; -40℃ for 7 d, 225 ng/mL): 2.77%
Stability in mice plasma, RE ([6]; -40℃ for 7 d, 2250 ng/mL): 9.33%
Stability in mice plasma, RE ([6]; Freeze-thaw three cycles, 45 ng/mL): 12.58%
Stability in mice plasma, RE ([6]; Freeze-thaw three cycles, 225 ng/mL): 17.75%
Stability in mice plasma, RE ([6]; Freeze-thaw three cycles, 2250 ng/mL): 6.90%
Stability in mice plasma, RE ([6]; In auto-sample for 24 h, 45 ng/mL): 14.04%
Stability in mice plasma, RE ([6]; In auto-sample for 24 h, 225 ng/mL): 17.58%
Stability in mice plasma, RE ([6]; In auto-sample for 24 h, 2250 ng/mL): 4.83%
Stability in mice plasma, RE ([6]; Room temperature for 24 h, 45 ng/mL): 9.38%
Stability in mice plasma, RE ([6]; Room temperature for 24 h, 225 ng/mL): 17.30%
Stability in mice plasma, RE ([6]; Room temperature for 24 h, 2250 ng/mL): 4.03%

CC(C)/N=c1\cc2n(-c3ccc(Cl)cc3)c3ccccc3nc-2cc1Nc1ccc(Cl)cc1 [clofazimine]
CYP3A4/5 inhibitor strength (CYP3A4/5): moderate-to-strong
